Experimental findings from US20110245323A1, “RIG-Like Helicase Innate Immunity Inhibits VEGF-Induced Tissue Responses” (Yale University, priority 2006, published 2011) are described below.

“Also recorded” adds a separate entry of the source.

What all share (type): in vivo, mouse
In experiment [1] the test system is Erk, FAK, Akt, and eNOS signaling pathways. Nature of the experiment: VEGF signaling in lung (eNOS/iNOS mRNA, immunoblot of Erk, FAK, Akt, eNOS). As to conditions: Tg+ mice lung. On the procedure:
These experiments used antibodies specific for Akt or phosphorylated (p) Akt (Danvers Mass.), FAK or pFAK (BioSource, International; Camarillo Calif.), PI3K or pPI3K (Cell Signalling), eNOS and iNOS (Santa Cruz BioTechnology, Santa Cruz Calif., USA) and MUC-5AC (NeoMarkers; Fremont). Western blot analysis was performed using standard protocols and visualized using the ECL system (Amersham Biosciences; Piscataway, N.J.).
Total RNA was isolated from fresh mouse lung with TRIzol reagent (Invitrogen; Carlsbad, Calif.) following the manufacturer's instructions. Quantification of mouse lung mRNA was performed by quantitative real-time PCR using ABI 7500 fast real-time PCR system (Applied Biosystems; Foster City, Calif.) and power SYBR green PCR master mix kit with appropriately specific primers (Applied Biosystems; Foster City, Calif.).
Lung lysates were subjected to immunoblot analysis using antibodies against phosphorylated (p) p-Erk, total Erk, p-Fak; total FAK; p-Akt, total Akt, peNOS and total eNOS (Cell Signaling, Beverly Mass.).
(In general: A western blot detects proteins with antibodies after separation by electrophoresis.)

The subject of experiment [2] is IFNAR1. Nature of the experiment: Poly(I:C) regulation of VEGF responses in IFNAR1 null VEGF Tg+ mice. An excerpt: TLR3^−/−-mice were a gift from Dr. Richard A. Flavell (Yale University), MAVS null mice were a gift from Dr Zijian J. Chen (U of Texas Southwestern) (Sun et al., 2006, Immunity 24:633-642), double stranded RNA-dependent protein kinase null mutant mice (PKR^−/−) were a gift from Dr. Bryan R. G. Williams (Cleveland Clinic Foundation) (Yang et al., 1995, Embo J 14:6095-6106) and IFNAR1 null mice were obtained from Dr. Richard Enelow (Dartmouth). These mice were bred with the VEGF Tg+ mice to generate transgenic mice with wild type (+/+) or null (−/−) TLR3, MAVS, PKR or IFNAR1 loci. Thus, in each given experiment, the effects in transgene negative (Tg−) and transgenic (Tg+) mice with WT and null TLR3, MAVS, PKR or IFNAR1 loci were compared.
To define the effects of Poly(I:C) a number of protocols were employed. In most experiments, a pretreatment-2 week protocol was employed. In these experiments, WT and Tg+ mice were treated with Poly(I:C) (30 μg in 50 lambda unless otherwise indicated; Amersham Biosciences, N.J.) or vehicle control via nasal aspiration and transgene activation was accomplished via the administration of dox (0.5 mg/ml) in the animal's drinking water 24 hours later. The Poly(I:C) was administered every other day and the dox was administered continuously for up to 2 weeks. […]

The test system of experiment [3] is IFN-α and IFN-β. The experiment can be described thus: BAL Type I IFNs by ELISA. As to conditions: WT (Tg−) and VEGF Tg+ animals. On the procedure: ELISA and activity assay kits for IFNa and IFNβ analysis were purchased from PBL Biomedical Laboratories (Piscataway, N.J.). ELISAs for eotaxin/CCL11, MCP-1/CCL2, KC/CXCL1 and MIP-2/CXCL14 were obtained from R&D Systems (Minneapolis, Minn. USA). Each was performed according to the manufacturer's instructions.
In general terms: ELISA stands for enzyme-linked immunosorbent assay.

The test system of experiment [4] is CC10-rtTA-VEGF165 transgenic mice. Nature of the experiment: Lung tissue inflammation, histologic analysis. Conditions: Tg+ mice, pretreatment, vs vehicle. As to the method:
The lungs were removed en bloc as described elsewhere herein, inflated at 25 cm pressure with PBS containing 0.5% low melting point agarose gel, fixed in Streck solution (Streck Laboratories, La Vista, Nebr.), embedded in paraffin, sectioned and stained. Hematoxylin and eosin and PAS stains were performed in the Research Histology Laboratory of the Department of Pathology at the Yale University School of Medicine. Pulmonary hemorrhage was evaluated by quantitating BAL red blood cell number with a Coulter counter (Beckman Coulter).

Experiment [5] deals with OVA sensitized and challenged mice. Nature of the experiment: Ovalbumin (OVA) sensitization and challenge Th2 inflammation model. On the procedure: Mice were sacrificed using intraperitoneal ketamine/xylazine injection and the trachea was cannulated and perfused with two 0.9 nil aliquots of cold saline. The cellular contents and BAL fluid were separated by centrifugation, the BAL cell number was quantitated and cell differential was assessed. The BAL fluid was stored in aliquots at −80° C.
ELISA assay kits for VEGF and IL-13 were purchased from R&D Systems (Minneapolis, Minn.).
OVA sensitization (with alum) and aerosol OVA challenge were undertaken as previously described (Lee et al., 2008, Am J Respir Cell Mol Biol 39:739-746; Lee et al., 2009, J Exp Med 206:1149-1166). The responses in mice that had been treated with Poly(I:C) or vehicle 24 hours before the aerosol challenge were compared. The BAL and tissue responses were evaluated 24 hours after antigen challenge.

Take “polyinosinic-polycytidylic acid [Poly(I:C)]”: in experiment [1] (30 μg pretreatment, 2 weeks), the “VEGF activation/phosphorylation of Erk, FAK, Akt and eNOS” value is “significantly decreased”. Besides, the “VEGF-induced eNOS and iNOS mRNA accumulation and AKT phosphorylation/activation” value in experiment [1] (p<0.05) is given as “significant decrease”. Moreover, the “ability to inhibit VEGF-induced angiogenesis, edema, inflammation and mucin production in Tg+ mice with null mutations of IFNAR1” value in experiment [2] (30 μg pretreatment, 2 weeks) was “significantly decreased”. The “ability to inhibit Erk, FAK, Akt and eNOS signaling pathways in mice lacking the IFNAR1 receptor” value in experiment [2] (Tg+ mice lung immunoblot) is listed as “significantly decreased”. For the same substance, the “production of IFN-α and IFN-β in BAL” value in experiment [3] was “potent stimulator”. In addition, the “inflammatory cell accumulation in lung tissues” value in experiment [4] is given as “lower levels of inflammation”. Moreover, in experiment [5], the “OVA-induced cytokine response (BAL IL-13)” value was “significant decrease”. For the same substance, the “OVA-induced inflammatory response (BAL total cell, macrophage, eosinophil, lymphocyte recovery)” value in experiment [5] (Poly(I:C) 24 hours before aerosol challenge) is given as “significant decrease; also recorded: abrogated”.
